Data from US20250163168A1, “NOVEL ANTIBODIES AND ANTIBODY CONJUGATES FOR THE TREATMENT OF METABOLIC DISORDERS” (PFIZER INC., priority 2023, published 2025).
Square brackets hold non-standard residues; d marks the D form. Ends that are not written are not given here. * marks the point of attachment. Aib = CC(C)(N)C(=O)O; BrAc = O=C(CBr)*

Target: T1, human GLP1R (Homo sapiens, UniProt P43220)
T1 construct: expressed in transfected cells; host or cells: CHO
Experiment: GLP1R agonist cAMP assay in CHO cells stably expressing human GLP1R
Type: cell-based
Conditions: relative to maximal effect of human GLP-1, read-out: GLP1R agonist mode Emax (%)
Experimental: cAMP assay: The in vitro agonist potency of the peptides disclosed herein was evaluated using a cell-based assay measuring cAMP production. CHO cells stably expressing human GLP1R, or both human GIPR and GLP1R, were incubated with increasing concentrations of agonists for 30 minutes at 37° C. Cells were lysed and cAMP was detected using a homogenous time resolved fluorescence detection kit, as described by the manufacturer (Revvity). […] The EC50 and maximum effect (Emax) values were then determined from the normalized effects and agonist concentrations using a four-parameter logistic equation (GraphPad Prism).

T1 sequence (P43220 24-463): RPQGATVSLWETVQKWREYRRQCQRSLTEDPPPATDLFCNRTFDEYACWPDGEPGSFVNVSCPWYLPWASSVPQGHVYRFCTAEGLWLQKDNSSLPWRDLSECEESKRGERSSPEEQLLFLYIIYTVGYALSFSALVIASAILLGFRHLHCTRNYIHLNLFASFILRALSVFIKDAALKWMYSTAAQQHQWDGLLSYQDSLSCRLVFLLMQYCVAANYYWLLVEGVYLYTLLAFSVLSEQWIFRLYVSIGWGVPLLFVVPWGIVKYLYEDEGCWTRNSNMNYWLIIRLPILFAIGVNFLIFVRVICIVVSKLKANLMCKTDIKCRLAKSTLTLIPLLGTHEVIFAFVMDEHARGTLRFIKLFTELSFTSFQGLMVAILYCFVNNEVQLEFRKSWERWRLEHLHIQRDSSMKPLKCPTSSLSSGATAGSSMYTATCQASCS

Molecule	Emax
CC[C@H](C)[C@H](NC(=O)[C@H](Cc1ccccc1)NC(=O)[C@H](CCC(=O)O)NC(=O)[C@H](CCCCN)NC(=O)[C@H](C)NC(=O)[C@H](C)NC(=O)[C@H](CCC(N)=O)NC(=O)[C@H](CCC(=O)O)NC(=O)[C@H](CCC(=O)O)NC(=O)[C@H](CC(C)C)NC(=O)[C@H](Cc1ccc(O)cc1)NC(=O)[C@H](CO)NC(=O)[C@H](CO)NC(=O)[C@H](Cc1ccc(O)cc1)NC(=O)[C@H](CC(=O)O)NC(=O)[C@H](CO)NC(=O)[C@@H](NC(=O)[C@H](Cc1ccccc1)NC(=O)[C@@H](NC(=O)CNC(=O)[C@H](CCC(=O)O)NC(=O)C(C)(C)NC(=O)[C@@H](N)Cc1c[nH]cn1)[C@@H](C)O)[C@@H](C)O)C(=O)N[C@@H](C)C(=O)N[C@@H](Cc1c[nH]c2ccccc12)C(=O)N[C@@H](CC(C)C)C(=O)N[C@H](C(=O)N[C@@H](CCCCN)C(=O)NCC(=O)NCC(=O)NCC(=O)NCC(=O)NCC(=O)NCC(=O)NCC(=O)N[C@@H](CO)C(=O)NCC(=O)NCC(=O)NCC(=O)NCC(=O)N[C@@H](CO)C(=O)NCC(=O)NCC(=O)NCC(=O)NCC(=O)N[C@@H](CO)C(=O)N[C@@H](CCCCNC(=O)CBr)C(N)=O)C(C)C [compound 154]	122%
H[Aib]EGTFTSDVSSYLEEQAAKEFIAWLVKGGGGGGGSGGGGSGGGGSK(BrAc)-NH2 (C-terminus assumed) [compound 153]	109%
H[Aib]EGTFTSDYSSYLE[Aib]QAAKEFIAWLVKGRGGGGGSGGGGSGGGGSK(BrAc)-NH2 (C-terminus assumed) [compound 152]	107%
H[Aib]EGTFTSDYSSYLEEQAAKEFIAWLVKGRGGGGGSGGGGSGGGGSK(BrAc)-NH2 (C-terminus assumed) [compound 151]	109%
